Source: patent US20080200441A1, “ESTROGEN RECEPTOR MODULATORS ASSOCIATED PHARMACEUTICAL COMPOSITIONS AND METHODS OF USE” (University of Southern California, priority 2007, published 2008)

Assays:
[1] = test system: ERK2; test: ERK phosphorylation, Western immunoblotting; conditions: 10 nM, 30 min
[2] = test system: rat primary hippocampal neurons; test: Neuroprotective efficacy (NE) against glutamate-induced neurotoxicity over time; assay type: cell-based; conditions: for Neuroprotective efficacy 2 hours after glutamate exposure / Neuroprotective efficacy 7.5 hours after glutamate exposure / Neuroprotective efficacy 10 minutes after glutamate exposure / Neuroprotective efficacy 5 hours after glutamate exposure: glutamate 200 μM; for time course of neuroprotection: early vs later time points after glutamate
Experimental: FIGS. 13A-E are graphs showing the neuroprotective efficacy of NS2 (FIG. 13A); NS1-1 (FIG. 13B); NS1-2 (FIG. 13C); NS1-3 (FIG. 13D); and NS1-4 (FIG. 13E) against glutamate-induced neurotoxicity in rat primary hippocampal neurons as a function of time and concentration (nM).
The assay for evaluating neuroprotective efficacy after glutamate exposure is discussed above. The following compounds were evaluated: NS2; NS1-1; NS1-2; NS1-3; and NS1-4. The results are shown in the Tables 4-8 and are presented graphically in FIGS. 13A-E.
Results are presented as neuroprotective efficacy (NE), which is defined as the percentage of neurotoxin-induced toxicity prevented by the test compounds (or combinations) and quantified by the equation:
NE=(Vtreatment−Vneurotoxin)/(Vcontrol−Vneurotoxin)*100%
where Vtreatment is the individual value from the test compounds (or combinations)-treated cultures, Vneurotoxin is a mean value from glutamate treated cultures, and Vcontrol is a mean value from vehicle-treated control cultures.

[3] = test system: MCF-7 cells; test: MCF-7 cell proliferation, MTT; assay type: cell-based, human; conditions: 3 days, serially diluted concentrations, MTT at 570 nm
[4] = biological target: full-length human ERβ (Homo sapiens, UniProt Q92731); test: Fluorescence polarization-based competitive binding assay, ERβ
full-length human ERβ, sequence (Q92731 whole entry): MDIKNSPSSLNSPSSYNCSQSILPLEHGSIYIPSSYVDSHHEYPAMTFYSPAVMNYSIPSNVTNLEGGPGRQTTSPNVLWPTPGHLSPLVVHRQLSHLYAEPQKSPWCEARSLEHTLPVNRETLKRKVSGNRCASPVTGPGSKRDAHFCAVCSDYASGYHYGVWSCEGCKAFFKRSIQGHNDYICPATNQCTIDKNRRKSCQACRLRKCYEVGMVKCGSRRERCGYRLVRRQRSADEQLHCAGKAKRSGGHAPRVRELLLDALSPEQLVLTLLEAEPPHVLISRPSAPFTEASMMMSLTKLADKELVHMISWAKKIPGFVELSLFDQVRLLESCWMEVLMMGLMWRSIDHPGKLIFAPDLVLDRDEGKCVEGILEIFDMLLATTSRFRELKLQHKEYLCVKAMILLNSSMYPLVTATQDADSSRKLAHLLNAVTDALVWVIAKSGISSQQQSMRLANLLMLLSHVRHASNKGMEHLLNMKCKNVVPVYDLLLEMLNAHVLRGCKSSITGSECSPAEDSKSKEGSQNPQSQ

[5] = test system: spinophilin; test: Spinophilin expression in hippocampal neurons; conditions: 100 nM, 48 h
[6] = test system: rat primary hippocampal neurons; test: Neuroprotection against glutamate-induced neurotoxicity, LDH release; assay type: cell-based
[7] = test system: rat primary hippocampal neurons; test: Neuroprotection against glutamate-induced neurotoxicity, calcein AM staining; assay type: cell-based
Description: The combined use of Calcein AM and Ethidium Homodimer-1 (Molecular Probes, Inc., Eugene, Oreg.) provides a two-color fluorescence analysis that allows simultaneous determination of live and dead cells with two probes that measure two recognized parameters of cell viability respectively, intracellular esterase activity and plasma membrane integrity. Calcein AM is a fluorogenic esterase substrate that enters the live cells through permeability and is enzymatically hydrolyzed to form the polyanionic dye calcein, which is well retained within live cells due to the intact plasma membranes and produces an intense uniform green fluorescence at 530 nm. Ethidium homodimer is excluded from live cells and only able to enter cells through compromised plasma membranes and binds to nucleic acid by intercalating between the base pairs, producing a bright red fluorescence at 645 nm. Therefore, Calcein AM and ethidium homodimer serve as two indicators for the identification of live and dead cells respectively.
Cultures were rinsed with phosphate-buffered saline (PBS) and incubated with the combined 1 μM calcein AM and 2 μM ethidium homodimer PBS solution at room temperature for 30 min. The fluorescence intensities were measured on a SpectraMax GEMINI EM dual-wavelength-scanning microplate spectrofluometer (Molecular Devices Corp., Sunnyvale, Calif.) using appropriate excitation and emission filter combinations (485/530 nm for calcein AM and 530/645 nm for ethidium homodimer).

[8] = test system: Bcl-2; test: Bcl-2 expression, Western immunoblotting; conditions: 100 nM, 48 h
[9] = biological target: T1, full-length human ERα (Homo sapiens, UniProt P03372); test: Fluorescence polarization-based competitive binding assay, ERα
T1 sequence (P03372 1-595): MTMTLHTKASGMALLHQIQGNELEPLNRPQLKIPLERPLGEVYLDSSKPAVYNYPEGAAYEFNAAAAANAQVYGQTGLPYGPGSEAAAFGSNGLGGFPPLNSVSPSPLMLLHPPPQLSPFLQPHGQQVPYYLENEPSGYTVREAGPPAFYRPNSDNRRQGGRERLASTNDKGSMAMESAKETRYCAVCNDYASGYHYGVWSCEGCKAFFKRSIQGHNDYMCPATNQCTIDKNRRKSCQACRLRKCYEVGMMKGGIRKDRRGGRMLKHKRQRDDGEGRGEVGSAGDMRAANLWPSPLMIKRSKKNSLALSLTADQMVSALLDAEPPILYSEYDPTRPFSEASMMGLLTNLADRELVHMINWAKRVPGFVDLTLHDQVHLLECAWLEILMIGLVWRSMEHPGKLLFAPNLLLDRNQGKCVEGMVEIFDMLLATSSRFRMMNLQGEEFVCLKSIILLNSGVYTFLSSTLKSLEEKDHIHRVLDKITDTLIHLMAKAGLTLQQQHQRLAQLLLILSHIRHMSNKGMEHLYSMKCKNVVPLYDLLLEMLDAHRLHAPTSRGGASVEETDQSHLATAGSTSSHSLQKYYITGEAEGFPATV

Structure (SMILES) | Neuroprotective efficacy 2 hours after glutamate exposure ([2]; 1 nM) | Neuroprotective efficacy 7.5 hours after glutamate exposure ([2]; 1 nM) | Neuroprotective efficacy 2 hours after glutamate exposure ([2]; 10 nM) | Neuroprotective efficacy 7.5 hours after glutamate exposure ([2]; 10 nM) | Neuroprotective efficacy 2 hours after glutamate exposure ([2]; 100 nM) | Neuroprotective efficacy 7.5 hours after glutamate exposure ([2]; 100 nM) | Neuroprotective efficacy 2 hours after glutamate exposure ([2]; 1000 nM) | Neuroprotective efficacy 7.5 hours after glutamate exposure ([2]; 1000 nM) | time course of neuroprotection [2] | other results
C[C@]12CC[C@@H]3c4ccc(O)cc4CC[C@H]3[C@@H]1CC[C@@H]2O [17β-estradiol] |  |  |  |  |  |  |  |  |  | increase in ERK2 phosphorylation compared to vehicle [1]: 38.0±7.7%
C[C@]12CCC3c4ccc(O)cc4C[C@@H](CCCCCCCCCCCCCCCCO)C3C1CC[C@@H]2O (stereo partly drawn) [NS1-2] | 17.5192% | 26.5265% | 51.3940% | 76.6877% | 32.3028% | 93.0520% | 24.9982% | 47.1665% | neuroprotective at early time points and increases in magnitude at later time points | 
CC(C)CCC[C@@H](C)CCC[C@@H](C)CCC[C@@H]1Cc2cc(O)ccc2C2CC[C@@]3(C)C(CC[C@@H]3O)C21 (stereo partly drawn) [NS1, 7α-[(4R,8R)-4,8,12-trimethyltridecyl]estra-1,3,5-trien-3,17β-diol] |  |  |  |  |  |  |  |  |  | MCF-7 cell proliferation [3]: does not induce MCF-7 cell proliferation; IC50 ([4]; competition with EL Red): 267 nM; increase in spinophilin expression compared to vehicle [5]: 61.7±8.2%; less potency than 17β-estradiol and ICI 182,780 in neuroprotection [6]: 10 fold; increase in neuronal membrane integrity compared with glutamate alone (LDH release) ([6]; 1 nM): 38.6±3.8%; increase in neuronal membrane integrity compared with glutamate alone (LDH release) ([6]; 10 nM): 44.1±3.8%; increase in neuronal membrane integrity compared with glutamate alone (LDH release) ([6]; 100 nM): 67.0±4.0%; increase in neuronal membrane integrity compared with glutamate alone (LDH release) ([6]; 1000 nM): 59.1±3.7%; increase in neuronal metabolic viability compared with glutamate alone (calcein AM) ([7]; 1 nM): 2.7±3.2%; increase in neuronal metabolic viability compared with glutamate alone (calcein AM) ([7]; 10 nM): 9.3±3.7%; increase in neuronal metabolic viability compared with glutamate alone (calcein AM) ([7]; 100 nM): 28.4±3.2%; increase in neuronal metabolic viability compared with glutamate alone (calcein AM) ([7]; 1000 nM): 25.6±4.4%; increase in Bcl-2 expression compared to vehicle [8]: 23.4±6.8%; IC50 [9]: 193 nM
CC(=O)[C@H]1CC[C@H]2[C@@H]3CCC4=CC(=O)CC[C@]4(C)[C@H]3CC[C@]12C [progesterone, reference compound] |  |  |  |  |  |  |  |  |  | binding to ERβ ([4]; negative control): does not bind; binding to ERα ([9]; negative control): does not bind
CC(C)=CCC/C(C)=C/CC/C(C)=C/CC1=C(c2ccc(O)cc2)C(=O)c2ccc(O)cc2C1=O [NS2] | 3.937% |  | 30.96% |  | 68.16% |  | 73.84% |  | neuroprotective at early time points and increases in magnitude at later time points | Neuroprotective efficacy 10 minutes after glutamate exposure ([2]; 1 nM): −10.3103%; Neuroprotective efficacy 5 hours after glutamate exposure ([2]; 1 nM): 24.94%; Neuroprotective efficacy 10 minutes after glutamate exposure ([2]; 10 nM): −3.6302%; Neuroprotective efficacy 5 hours after glutamate exposure ([2]; 10 nM): 44%; Neuroprotective efficacy 10 minutes after glutamate exposure ([2]; 100 nM): 33.68%; Neuroprotective efficacy 5 hours after glutamate exposure ([2]; 100 nM): 71.35%; Neuroprotective efficacy 10 minutes after glutamate exposure ([2]; 1000 nM): 40.51%; Neuroprotective efficacy 5 hours after glutamate exposure ([2]; 1000 nM): 76.45%
CCCCCCCCCCCCCCCC[C@@H]1Cc2cc(O)ccc2C2CC[C@@]3(C)C(CC[C@@H]3O)C21 (stereo partly drawn) [NS1-1] | 12.7957% |  | 41.8183% |  | 77.2530% |  | 70.8102% |  | neuroprotective at early time points with diminished protection at later time points | Neuroprotective efficacy 5 hours after glutamate exposure ([2]; 1 nM): 3.769%; Neuroprotective efficacy 5 hours after glutamate exposure ([2]; 10 nM): 20.8614%; Neuroprotective efficacy 5 hours after glutamate exposure ([2]; 100 nM): 23.8415%; Neuroprotective efficacy 5 hours after glutamate exposure ([2]; 1000 nM): 11.9900%
CC(C)CCC[C@@H](C)CCC[C@@H](C)CCC[C@H](C)CC[C@@H]1Cc2cc(O)ccc2C2CC[C@@]3(C)C(CC[C@@H]3O)C21 (stereo partly drawn) [NS1-4] | 51.86% | 8.415% | 86.27% | 28.8% | 110.3902% | 69.76% | 94.3991% | 38.0418% | neuroprotective at early time points with diminished protection at later time points | 
C[C@]12CCC3c4ccc(O)cc4C[C@@H](CCCCCCCCCCCCCCCCOCc4ccccc4)C3C1CC[C@@H]2O (stereo partly drawn) [NS1-3] | 15.44% | 8.102% | 55.77% | 28.06% | 87.33% | 51.87% | 78.43% | 53.3893% | neuroprotective at early time points with diminished protection at later time points | 
